Experimental findings from paper PMC7247349, “Reactions of Plasmodium falciparum Ferredoxin:NADP^+ Oxidoreductase with Redox Cycling Xenobiotics: A Mechanistic Study” (International Journal of Molecular Sciences, 2020) are described below.

In experiment [1] the target is T1, Ferredoxin:NADP^+ oxidoreductase (PfFNR) (Plasmodium falciparum, UniProt C6KT68).
T1 construct: gene FNR; recombinant PfFNR
As to the kind of experiment: steady-state product inhibition of juglone reductase reaction. The format is biochemical.

The target of experiment [2] is T1, Ferredoxin:NADP^+ oxidoreductase (PfFNR). As to the kind of experiment: steady-state kinetics; competitive inhibition versus AcPyP+ in transhydrogenase reaction; stopped-flow FAD reduction. The format is biochemical. The text has this: steady-state kinetics; competitive inhibition versus AcPyP+ in transhydrogenase reaction; stopped-flow FAD reduction on Ferredoxin:NADP^+ oxidoreductase (PfFNR) | NADPH acts as a competitive inhibitor to AcPyP^+, occupying the pyridine nucleotide binding site of the reduced enzyme form

T1 sequence (C6KT68 56-371): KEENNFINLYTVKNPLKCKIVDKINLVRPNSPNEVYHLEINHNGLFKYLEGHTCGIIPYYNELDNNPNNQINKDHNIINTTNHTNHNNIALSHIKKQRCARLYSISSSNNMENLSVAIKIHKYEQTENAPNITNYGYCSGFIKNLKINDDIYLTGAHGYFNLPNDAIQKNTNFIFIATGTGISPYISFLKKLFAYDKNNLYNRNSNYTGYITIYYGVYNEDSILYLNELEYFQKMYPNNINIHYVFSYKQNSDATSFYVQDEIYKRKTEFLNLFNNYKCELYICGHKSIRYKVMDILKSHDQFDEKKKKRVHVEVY

What is called Ki is a measure of affinity in units of concentration, obtained from inhibition or displacement. The low end stands for tighter binding, the high end for weaker binding. Turning to `NC(=O)c1ccc[n+]([C@@H]2O[C@H](COP(=O)([O-])OP(=O)(O)OC[C@H]3O[C@@H](n4cnc5c(N)ncnc54)[C@H](OP(=O)(O)O)[C@@H]3O)[C@@H](O)[C@H]2O)c1` [NADP^+], the Ki in experiment [1] turned out to be 1420 ± 130 µM.

The compound `NC(=O)C1=CN([C@@H]2O[C@H](COP(=O)(O)OP(=O)(O)OC[C@H]3O[C@@H](n4cnc5c(N)ncnc54)[C@H](OP(=O)(O)O)[C@@H]3O)[C@@H](O)[C@H]2O)C=CC1` [NADPH] displayed a Ki in experiment [2] of 140 ± 20 µM.
